From PubChem BioAssay AID248 (DTP/NCI, 2004)
Several values for one entry are separate records, joined by “and”; a condition that tells them apart may be missing. Equal values may be shown once. Inconclusive results and toxic doses are left out. No stated cut-off is given here; in the data, active means T/C of 150% or more; inactive means T/C below 125%.

Tested on: L1210 leukemia ip in BDF1 mice, survival T/C
Test: NCI In Vivo Anticancer Drug Screen. Data for tumor model L1210 Leukemia (intraperitoneal) in B6D2F1 (BDF1) mice
Settings: endpoint: mean survival time, higher = longer survival
Procedure, shortened: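 Ratio derived from survival: compound-dosed mice over vehicle-dosed mice, all bearing a transplantable tumor.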

[1] = dose: 100.0 mg/kg/injection, schedule: Q04DX002 (ip), vehicle: saline
[2] = dose: 200.0 mg/kg/injection, schedule: Q04DX002 (ip), vehicle: saline
[3] = dose: 400.0 mg/kg/injection, schedule: Q04DX002 (ip), vehicle: saline
[4] = dose: 100.0 mg/kg/injection, schedule: Q01DX009 (ip), vehicle: Klucel (hydroxypropylcellulose) (HPC)
[5] = dose: 100.0 mg/kg/injection, schedule: Q04DX003 (ip), vehicle: Klucel (hydroxypropylcellulose) (HPC)
[6] = dose: 200.0 mg/kg/injection, schedule: Q01DX009 (ip), vehicle: Klucel (hydroxypropylcellulose) (HPC)
[7] = dose: 200.0 mg/kg/injection, schedule: Q04DX003 (ip), vehicle: Klucel (hydroxypropylcellulose) (HPC)
[8] = dose: 400.0 mg/kg/injection, schedule: Q04DX003 (ip), vehicle: Klucel (hydroxypropylcellulose) (HPC)
[9] = dose: 100.0 mg/kg/injection, schedule: Q01DX001 (ip), vehicle: carboxymethylcellulose (CMC)
[10] = dose: 200.0 mg/kg/injection, schedule: Q01DX001 (ip), vehicle: carboxymethylcellulose (CMC)
[11] = dose: 400.0 mg/kg/injection, schedule: Q01DX009 (ip), vehicle: Klucel (hydroxypropylcellulose) (HPC)
[12] = dose: 100.0 mg/kg/injection, schedule: Q01DX001 (ip), vehicle: saline with Tween-80
[13] = dose: 200.0 mg/kg/injection, schedule: Q01DX001 (ip), vehicle: saline with Tween-80
[14] = dose: 400.0 mg/kg/injection, schedule: Q01DX001 (ip), vehicle: saline with Tween-80
[15] = dose: 25.0 mg/kg/injection, schedule: Q01DX009 (ip), vehicle: saline
[16] = dose: 50.0 mg/kg/injection, schedule: Q01DX009 (ip), vehicle: saline
[17] = dose: 100.0 mg/kg/injection, schedule: Q01DX001 (ip), vehicle: saline

Measured: T/C

CC(C)c1cc(O)ccc1O
inactive: dose: 100.0 mg/kg/injection, schedule: Q01DX001 (ip), vehicle: other 102 % of control | dose: 200.0 mg/kg/injection, schedule: Q01DX001 (ip), vehicle: other 94 % of control

NC(=O)N1CCCCN1C(N)=O
inactive: [1] 99 % of control | [2] 111 % of control | [3] 92 % of control

COc1ccc(N2c3ccccc3-c3cc[nH]c(=O)c3[C@H]2O)cc1OC
inactive: dose: 12.5 mg/kg/injection, schedule: Q04DX003 (ip), vehicle: saline 93 % of control | dose: 25.0 mg/kg/injection, schedule: Q04DX003 (ip), vehicle: saline 101 % of control | dose: 50.0 mg/kg/injection, schedule: Q04DX003 (ip), vehicle: saline 91 % of control | dose: 75.0 mg/kg/injection, schedule: Q04DX003 (ip), vehicle: saline 99 % of control | dose: 115.0 mg/kg/injection, schedule: Q04DX003 (ip), vehicle: saline 105 % of control | dose: 170.0 mg/kg/injection, schedule: Q04DX003 (ip), vehicle: saline 94 % of control

CCCCCCCCCCCCCCCC(=O)OCC1OC(CO)(OC2OC(CO)C(O)C(O)C2O)C(O)C1O (configuration not stated)
inactive: [4] 91 % of control | [5] 89 % of control | [6] 94 % of control | [7] 91 % of control | [8] 98 % of control

NC(=O)c1ccccc1OC(=O)Nc1ccc(F)cc1
inactive: dose: 50.0 mg/kg/injection, schedule: Q01DX001 (ip), vehicle: carboxymethylcellulose (CMC) 100 % of control | dose: 50.0 mg/kg/injection, schedule: Q01DX009 (ip), vehicle: carboxymethylcellulose (CMC) 97 % of control | [9] 103 % of control | dose: 100.0 mg/kg/injection, schedule: Q01DX009 (ip), vehicle: carboxymethylcellulose (CMC) 100 % of control and 103 % of control | dose: 100.0 mg/kg/injection, schedule: Q04DX002 (ip), vehicle: carboxymethylcellulose (CMC) 100 % of control and 109 % of control | [10] 102 % of control | dose: 200.0 mg/kg/injection, schedule: Q04DX002 (ip), vehicle: carboxymethylcellulose (CMC) 100 % of control | dose: 400.0 mg/kg/injection, schedule: Q04DX002 (ip), vehicle: carboxymethylcellulose (CMC) 86 % of control

CC(COC(=O)c1ccc(N)cc1)NC1CCCC1 (configuration not stated)
inactive: dose: 75.0 mg/kg/injection, schedule: Q01DX001 (ip), vehicle: saline 97 % of control | dose: 150.0 mg/kg/injection, schedule: Q01DX001 (ip), vehicle: saline 105 % of control

CCCC(O)c1ccc(OC)c(OC)c1 (configuration not stated)
inactive: dose: 100.0 mg/kg/injection, schedule: Q04DX002 (ip), vehicle: Klucel (hydroxypropylcellulose) (HPC) 97 % of control | dose: 200.0 mg/kg/injection, schedule: Q04DX002 (ip), vehicle: Klucel (hydroxypropylcellulose) (HPC) 102 % of control

COc1cc(C(=O)O)cc(OC)c1OC(C)=O
inactive: dose: 100.0 mg/kg/injection, schedule: Q01DX009 (ip), vehicle: saline with Tween-80 104 % of control | dose: 200.0 mg/kg/injection, schedule: Q01DX009 (ip), vehicle: saline with Tween-80 98 % of control | dose: 400.0 mg/kg/injection, schedule: Q01DX009 (ip), vehicle: saline with Tween-80 88 % of control

Cc1ccc(C[N+](C)(C)C)cc1
inactive: dose: 9.38 mg/kg/injection, schedule: Q01DX001 (ip), vehicle: saline 103 % of control | dose: 18.75 mg/kg/injection, schedule: Q01DX001 (ip), vehicle: saline 100 % of control | dose: 37.5 mg/kg/injection, schedule: Q01DX001 (ip), vehicle: saline 100 % of control

COc1cc(-c2ccccc2)c([N+](=O)[O-])cc1[N+](=O)[O-]
inactive: [9] 107 % of control | [10] 110 % of control | dose: 400.0 mg/kg/injection, schedule: Q01DX001 (ip), vehicle: carboxymethylcellulose (CMC) 116 % of control

CNC(=O)C(C)C1C(=O)/C(=C(O)/C=C/C(C)=C\C(C)C2OC3(C)OC(C=CC34CO4)C2C)C(=O)N1C1CCC(O)C(C)O1 (configuration not stated)
inactive: dose: 100.0 mg/kg/injection, schedule: Q01DX009 (ip), vehicle: saline 111 % of control | dose: 100.0 mg/kg/injection, schedule: Q04DX003 (ip), vehicle: saline 97 % of control | dose: 200.0 mg/kg/injection, schedule: Q01DX009 (ip), vehicle: saline 101 % of control | dose: 200.0 mg/kg/injection, schedule: Q04DX003 (ip), vehicle: saline 105 % of control | dose: 400.0 mg/kg/injection, schedule: Q04DX003 (ip), vehicle: saline 107 % of control

CCCC/C(CC)=N\N=C(/CC)CCCC
inactive: dose: 50.0 mg/kg/injection, schedule: Q04DX002 (ip), vehicle: saline 91 % of control | [1] 102 % of control | [2] 88 % of control | [3] 96 % of control

CCCCCCCCCCCCCCCCCC(N)=O
inactive: [4] 87 % of control | [5] 102 % of control | [6] 87 % of control | [7] 95 % of control | [11] 117 % of control | [8] 96 % of control

O=[N+]([O-])c1ccc(S(=O)(=O)OCc2ccccc2OS(=O)(=O)c2ccc([N+](=O)[O-])cc2)cc1
inactive: dose: 25.0 mg/kg/injection, schedule: Q01DX009 (ip), vehicle: saline sonified 103 % of control | dose: 50.0 mg/kg/injection, schedule: Q01DX009 (ip), vehicle: saline sonified 95 % of control | dose: 100.0 mg/kg/injection, schedule: Q01DX009 (ip), vehicle: saline sonified 100 % of control | [5] 91 % of control

O=C1C2C(c3cc4ccccc4n31)N2c1ccccc1 (configuration not stated)
inactive: dose: 0.75 mg/kg/injection, schedule: Q01DX001 (ip), vehicle: water 103 % of control | dose: 1.5 mg/kg/injection, schedule: Q01DX001 (ip), vehicle: water 103 % of control | dose: 3.0 mg/kg/injection, schedule: Q01DX001 (ip), vehicle: water 100 % of control | dose: 6.0 mg/kg/injection, schedule: Q01DX001 (ip), vehicle: water 106 % of control | dose: 12.0 mg/kg/injection, schedule: Q01DX001 (ip), vehicle: water 91 % of control | dose: 24.0 mg/kg/injection, schedule: Q01DX001 (ip), vehicle: water 106 % of control

CC(=O)OC(C)(C)C1CCC2(C)COC3(C)CC(=O)OC23C1 (configuration not stated)
inactive: dose: 33.0 mg/kg/injection, schedule: Q04DX003 (ip), vehicle: saline 101 % of control | dose: 66.0 mg/kg/injection, schedule: Q04DX003 (ip), vehicle: saline 101 % of control

Nc1nc(N)c(-c2ccc(Cl)c(Cl)c2)c(/C=C/c2ccc(S(=O)(=O)F)cc2)n1
inactive: [12] 87 % of control | [13] 91 % of control | [14] 87 % of control

C1CCC(C2CCCC(C3CCCC[N-]3)[N-]2)[N-]C1.[Cl][Pt] (configuration not stated)
inactive: dose: 12.5 mg/kg/injection, schedule: Q01DX009 (ip), vehicle: saline 102 % of control | [15] 98 % of control | [16] 104 % of control and 106 % of control

CCCCCCCC(=O)N(CCC(=O)O)C(=O)O
inactive: [12] 88 % of control | [13] 96 % of control | [14] 107 % of control

N#Cc1nn(C2OC(CO)C(O)C2O)c2ncnc(N)c12 (configuration not stated)
inactive: [15] 110 % of control | dose: 50.0 mg/kg/injection, schedule: Q01DX005 (ip), vehicle: saline 117 % of control | [16] 114 % of control | dose: 100.0 mg/kg/injection, schedule: Q01DX005 (ip), vehicle: saline 97 % of control

CCCCCCCCOc1ccc(C)cc1
inactive: [4] 107 % of control | [6] 94 % of control | [11] 97 % of control

COc1ccc(N=CN(C)C)cc1
inactive: dose: 50.0 mg/kg/injection, schedule: Q01DX001 (ip), vehicle: saline 100 % of control | [17] 96 % of control

CC(CC(=O)N1CCCCC1)CC(=O)N1CCCCC1
inactive: [17] 94 % of control | dose: 200.0 mg/kg/injection, schedule: Q01DX001 (ip), vehicle: saline 104 % of control

CC1(C)N=C(N)N=C(N)N1c1cccc(OCCOc2ccccc2N)c1
inactive: dose: 25.0 mg/kg/injection, schedule: Q01DX001 (ip), vehicle: Klucel (hydroxypropylcellulose) (HPC) 101 % of control | dose: 50.0 mg/kg/injection, schedule: Q01DX001 (ip), vehicle: Klucel (hydroxypropylcellulose) (HPC) 101 % of control | dose: 100.0 mg/kg/injection, schedule: Q01DX001 (ip), vehicle: Klucel (hydroxypropylcellulose) (HPC) 98 % of control
